{"source": "ChEMBL document CHEMBL4725268", "about": "“Anticonvulsant and analgesic in neuropathic pain activity in a group of new aminoalkanol derivatives” (Bioorg Med Chem Lett, 2020)", "key": {"[1]": {"assay": "Genotoxicity in Salmonella typhimurium TA100 assessed as number of revertant at 0.1 ug by AMES test (reference value: 64.3 to 130.7)", "format": "toxicity, Salmonella enterica subsp. enterica serovar Typhimurium", "conditions": "in vivo; dose 0.1 µg"}, "[2]": {"assay": "Genotoxicity in Salmonella typhimurium TA98 assessed as number of revertant at 200 ug by AMES test (reference value: 8 to 8.3)", "format": "toxicity, Salmonella enterica subsp. enterica serovar Typhimurium", "conditions": "in vivo; dose 200 µg"}, "[3]": {"assay": "Genotoxicity in Salmonella typhimurium TA100 assessed as number of revertant at 10 ug by AMES test (reference value: 64.3 to 130.7)", "format": "toxicity, Salmonella enterica subsp. enterica serovar Typhimurium", "conditions": "in vivo; dose 10 µg"}, "Astrocyte [4]": {"system": "Astrocyte", "assay": "Cytotoxicity against human Astrocyte assessed as reduction in cell viability at 50 uM incubated for 24 hrs by MTT assay", "format": "cell-based"}, "Mus musculus [5]": {"system": "Mus musculus", "assay": "Antiallodynic activity in mouse model of OXA-induced peripheral neuropathy assessed as mean paw withdrawal threshold at 15 mg/kg, ip administered after 7 days of OXA stimulation and measured after 1 hr by Von-frey method (reference value: 3.192 +/- 0.181 g)", "format": "functional"}, "[6]": {"biological_target": "T1, 5-hydroxytryptamine receptor 1A (Homo sapiens, UniProt P08908)", "T1 sequence (P08908 whole entry)": "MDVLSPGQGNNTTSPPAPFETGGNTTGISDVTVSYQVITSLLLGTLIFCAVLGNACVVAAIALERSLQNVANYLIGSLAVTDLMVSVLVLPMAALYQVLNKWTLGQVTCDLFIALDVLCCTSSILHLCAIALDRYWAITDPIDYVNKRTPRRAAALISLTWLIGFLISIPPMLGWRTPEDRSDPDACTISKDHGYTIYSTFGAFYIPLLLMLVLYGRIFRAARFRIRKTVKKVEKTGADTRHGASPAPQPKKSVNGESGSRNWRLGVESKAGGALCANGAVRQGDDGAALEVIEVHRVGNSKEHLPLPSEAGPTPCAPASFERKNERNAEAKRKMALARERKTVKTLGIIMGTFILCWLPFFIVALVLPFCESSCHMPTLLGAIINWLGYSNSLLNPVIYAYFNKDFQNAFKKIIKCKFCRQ", "assay": "Binding affinity to 5-HT1A (unknown origin)"}, "[7]": {"assay": "Genotoxicity in Salmonella typhimurium TA98 assessed as mutagenic index at 500 ug by AMES test", "format": "toxicity, Salmonella enterica subsp. enterica serovar Typhimurium", "conditions": "in vivo; dose 500 µg"}, "[8]": {"assay": "Genotoxicity in Salmonella typhimurium TA100 assessed as mutagenic index at 75 ug by AMES test", "format": "toxicity, Salmonella enterica subsp. enterica serovar Typhimurium", "conditions": "in vivo; dose 75 µg"}, "[9]": {"assay": "Toxicity in ip dosed mouse assessed as motor impairment by rotarod test", "format": "organism-based", "conditions": "in vivo"}, "Astrocyte [10]": {"system": "Astrocyte", "assay": "Cytotoxicity against mouse Astrocyte assessed as reduction in cell viability at 100 uM incubated for 24 hrs by LDH assay", "format": "cell-based"}, "[11]": {"assay": "Genotoxicity in Salmonella typhimurium TA100 assessed as mutagenic index at 0.1 ug by AMES test", "format": "toxicity, Salmonella enterica subsp. enterica serovar Typhimurium", "conditions": "in vivo; dose 0.1 µg"}, "[12]": {"assay": "Genotoxicity in Salmonella typhimurium TA100 assessed as number of revertant at 75 ug by AMES test (reference value: 64.3 to 130.7)", "format": "toxicity, Salmonella enterica subsp. enterica serovar Typhimurium", "conditions": "in vivo; dose 75 µg"}, "[13]": {"assay": "Genotoxicity in Salmonella typhimurium TA98 assessed as mutagenic index at 75 ug by AMES test", "format": "toxicity, Salmonella enterica subsp. enterica serovar Typhimurium", "conditions": "in vivo; dose 75 µg"}, "[14]": {"assay": "Genotoxicity in Salmonella typhimurium TA100 assessed as number of revertant at 200 ug by AMES test (reference value: 64.3 to 130.7)", "format": "toxicity, Salmonella enterica subsp. enterica serovar Typhimurium", "conditions": "in vivo; dose 200 µg"}, "in vitro [15]": {"assay": "in vitro", "conditions": "mouse, microsomes", "description": "Metabolic stability in mouse microsome assessed as intrinsic clearance"}, "[16]": {"assay": "Genotoxicity in Salmonella typhimurium TA98 assessed as number of revertant at 750 ug by AMES test (reference value: 8 to 8.3)", "format": "toxicity, Salmonella enterica subsp. enterica serovar Typhimurium", "conditions": "in vivo; dose 750 µg"}, "Astrocyte [17]": {"system": "Astrocyte", "assay": "Cytotoxicity against mouse Astrocyte assessed as reduction in cell viability at 100 uM incubated for 48 hrs by trypan blue assay", "format": "cell-based"}, "[18]": {"assay": "Genotoxicity in Salmonella typhimurium TA100 assessed as mutagenic index at 10 ug by AMES test", "format": "toxicity, Salmonella enterica subsp. enterica serovar Typhimurium", "conditions": "in vivo; dose 10 µg"}, "Mus musculus [19]": {"system": "Mus musculus", "assay": "Anticonvulsant activity in ip dosed mouse assessed as protection against current-induced seizure by maximal electroshock seizure test", "format": "functional"}, "[20]": {"assay": "Genotoxicity in Salmonella typhimurium TA100 assessed as mutagenic index at 200 ug by AMES test", "format": "toxicity, Salmonella enterica subsp. enterica serovar Typhimurium", "conditions": "in vivo; dose 200 µg"}, "[21]": {"assay": "Protection index, ratio of TD50 for toxicity in ip dosed mouse to ED50 for anticonvulsant activity in ip dosed mouse", "format": "organism-based", "conditions": "in vivo, read-out: PI"}, "in vitro [22]": {"assay": "in vitro", "conditions": "mouse, microsomes", "remark": "listed apart in the source", "description": "Metabolic stability in mouse microsome assessed as half life"}, "[23]": {"assay": "Genotoxicity in Salmonella typhimurium TA98 assessed as number of revertant at 10 ug by AMES test (reference value: 8 to 8.3)", "format": "toxicity, Salmonella enterica subsp. enterica serovar Typhimurium", "conditions": "in vivo; dose 10 µg"}, "Mus musculus [24]": {"system": "Mus musculus", "assay": "Antiallodynic activity in mouse model of OXA-induced peripheral neuropathy assessed as mean paw withdrawal threshold at 15 mg/kg, ip administered after 3 hrs of OXA stimulation and measured after 1 hr by Von-frey method (reference value: 3.144 +/- 0.169 g)", "format": "functional"}, "[25]": {"assay": "Drug metabolism in mouse microsome assessed as formation of monohydroxylated metabolite", "format": "ADME", "conditions": "microsomes"}, "[26]": {"assay": "Genotoxicity in Salmonella typhimurium TA98 assessed as number of revertant at 75 ug by AMES test (reference value: 8 to 8.3)", "format": "toxicity, Salmonella enterica subsp. enterica serovar Typhimurium", "conditions": "in vivo; dose 75 µg"}, "[27]": {"assay": "Genotoxicity in Salmonella typhimurium TA98 assessed as mutagenic index at 750 ug by AMES test", "format": "toxicity, Salmonella enterica subsp. enterica serovar Typhimurium", "conditions": "in vivo; dose 750 µg"}, "[28]": {"assay": "Genotoxicity in Salmonella typhimurium TA98 assessed as mutagenic index at 10 ug by AMES test", "format": "toxicity, Salmonella enterica subsp. enterica serovar Typhimurium", "conditions": "in vivo; dose 10 µg"}, "Astrocyte [29]": {"system": "Astrocyte", "assay": "Cytotoxicity against mouse Astrocyte assessed as reduction in cell viability at > 25 uM measured upto 48 hrs by crystal violet staining colorimetric assay", "format": "cell-based"}, "Mus musculus [30]": {"system": "Mus musculus", "assay": "Antiallodynic activity in mouse model of OXA-induced peripheral neuropathy assessed as mean latency time to nocifensive response at 15 mg/kg, ip administered after 3 hrs of OXA stimulation and measured after 1 hr by cold plate method (reference value: 59.76 +/- 0.16 sec)", "format": "functional"}, "[31]": {"assay": "Genotoxicity in Salmonella typhimurium TA100 assessed as mutagenic index at 1 ug by AMES test", "format": "toxicity, Salmonella enterica subsp. enterica serovar Typhimurium", "conditions": "in vivo; dose 1 µg"}, "Mus musculus [32]": {"system": "Mus musculus", "assay": "Antiallodynic activity in mouse model of OXA-induced peripheral neuropathy assessed as mean latency time to nocifensive response at 15 mg/kg, ip administered after 7 days of OXA stimulation and measured after 1 hr by cold plate method (reference value: 57.64 +/- 1.267 sec)", "format": "functional"}, "[33]": {"assay": "Genotoxicity in Salmonella typhimurium TA98 assessed as number of revertant at 500 ug by AMES test (reference value: 8 to 8.3)", "format": "toxicity, Salmonella enterica subsp. enterica serovar Typhimurium", "conditions": "in vivo; dose 500 µg"}, "[34]": {"assay": "Toxicity in mouse assessed as lethality at 50 mg/kg, ip", "format": "organism-based", "conditions": "in vivo"}, "[35]": {"assay": "Antioxidant activity assessed as DPPH radical scavenging activity at 125 to 1000 uM by microplate method", "format": "functional", "conditions": "dose microM 125-1000"}, "[36]": {"assay": "Genotoxicity in Salmonella typhimurium TA100 assessed as number of revertant at 1 ug by AMES test (reference value: 64.3 to 130.7)", "format": "toxicity, Salmonella enterica subsp. enterica serovar Typhimurium", "conditions": "in vivo; dose 1 µg"}, "[37]": {"assay": "Genotoxicity in Salmonella typhimurium TA98 assessed as mutagenic index at 200 ug by AMES test", "format": "toxicity, Salmonella enterica subsp. enterica serovar Typhimurium", "conditions": "in vivo; dose 200 µg"}}, "note": "The source made the active and inactive calls.", "data": [{"smiles": "Cc1cc(C)c(C)c(OCCN[C@@H]2CCCC[C@H]2O)c1", "note": "(racemic)", "values": [{"measurement": "Activity", "setting": "[1]", "result": 147}, {"measurement": "Activity", "setting": "[2]", "result": 6.7}, {"measurement": "Activity", "setting": "[3]", "result": 185.5}, {"measurement": "Activity", "setting": "Astrocyte [4]", "result": "Toxic"}, {"measurement": "Activity", "setting": "Mus musculus [5]", "result": 2.122, "unit": "g"}, {"measurement": "Ki", "setting": "[6]", "result": 1010, "unit": "nM"}, {"measurement": "Activity_index", "setting": "[7]", "result": 1.1}, {"measurement": "Activity_index", "setting": "[8]", "result": 1.4}, {"measurement": "TD50", "setting": "[9]", "result": 78.3, "unit": "mg/kg"}, {"measurement": "Activity", "setting": "Astrocyte [10]", "result": "Toxic"}, {"measurement": "Activity_index", "setting": "[11]", "result": 1.1}, {"measurement": "Activity", "setting": "[12]", "result": 105}, {"measurement": "Activity_index", "setting": "[13]", "result": 0.8}, {"measurement": "Activity", "setting": "[14]", "result": 49}, {"measurement": "microsomal CLint", "setting": "in vitro [15]", "result": 128, "unit": "µL/min/mg"}, {"measurement": "Activity", "setting": "[16]", "result": 9.3}, {"measurement": "Activity", "setting": "Astrocyte [17]", "result": "Toxic"}, {"measurement": "Activity_index", "setting": "[18]", "result": 2.6}, {"measurement": "ED50", "setting": "Mus musculus [19]", "result": 15.7, "unit": "mg/kg"}, {"measurement": "Activity_index", "setting": "[20]", "result": 0.7}, {"measurement": "selectivity ratio", "setting": "[21]", "result": 5}, {"measurement": "half-life", "setting": "in vitro [22]", "result": 27.2, "unit": "min"}, {"measurement": "Activity", "setting": "[23]", "result": 7.3}, {"measurement": "Activity", "setting": "Mus musculus [24]", "result": 2.222, "unit": "g"}, {"measurement": "Drug metabolism", "setting": "[25]", "result": "Metabolite_Detected"}, {"measurement": "Activity", "setting": "[26]", "result": 6.3}, {"measurement": "Activity_index", "setting": "[27]", "result": 1.2}, {"measurement": "Activity_index", "setting": "[28]", "result": 0.9}, {"measurement": "Activity", "setting": "Astrocyte [29]", "result": "Toxic"}, {"measurement": "Time", "setting": "Mus musculus [30]", "result": 22.333, "unit": "s"}, {"measurement": "Activity_index", "setting": "[31]", "result": 1.1}, {"measurement": "Time", "setting": "Mus musculus [32]", "result": 9.278, "unit": "s"}, {"measurement": "Activity", "setting": "[33]", "result": 8.7}, {"measurement": "Activity", "setting": "[34]", "result": "Non-Toxic"}, {"measurement": "Activity", "setting": "[35]", "result": "inactive"}, {"measurement": "Activity", "setting": "[36]", "result": 138.3}, {"measurement": "Activity_index", "setting": "[37]", "result": 0.8}]}]}
